The source of these data is PubChem BioAssay (NCI).

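Interpolation was linear, between the two tested concentrations surrounding the appropriate level; five concentrations were tested over 48 hours in 96-well plates. The concentration for full growth arrest is given as TGI.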 Where only a bound is given, the exact number is not on record here.

Test systems include RPMI-8226 leukemia; K-562 leukemia; A498 renal; SK-MEL-2 melanoma; HOP-62 NSCLC; SNB-19 CNS; SR leukemia; OVCAR-5 ovarian; CAKI-1 renal; DU-145 prostate; MDA-N.
Holding throughout (experiment): DTP human tumour cell line panel, 48 h

As to `c1ccc2c(c1)CCc1[nH]c3c(c1-2)-c1ccccc1CC3`, the TGI in the assay on RPMI-8226 leukemia was above 100 µM; in the assay on K-562 leukemia it was above 100 µM; in the assay on A498 renal, above 100 µM; with SK-MEL-2 melanoma it was above 100 µM; with HOP-62 NSCLC, 58.5 µM; with SNB-19 CNS it was above 100 µM. The TGI with SR leukemia, in the assay with OVCAR-5 ovarian, with CAKI-1 renal, with DU-145 prostate and in the assay with MDA-N was above 100 µM throughout.

On to `O=c1cn[nH]c(=S)n1/N=C/c1c[nH]c2ccccc12`, for which the TGI in the assay with RPMI-8226 leukemia, in the assay with K-562 leukemia, in the assay with A498 renal, in the assay with SK-MEL-2 melanoma, in the assay with HOP-62 NSCLC and with SNB-19 CNS was above 100 µM in each case. Also, the TGI in the assay on SR leukemia, with OVCAR-5 ovarian, in the assay on CAKI-1 renal, in the assay with DU-145 prostate and in the assay with MDA-N was above 100 µM each time.

On to `OCCOc1ccccc2cccc1-2`, for which the TGI in the assay on RPMI-8226 leukemia, with K-562 leukemia, with A498 renal, with SK-MEL-2 melanoma, in the assay on HOP-62 NSCLC and with SNB-19 CNS was above 100 µM each time. Also, the TGI in the assay with SR leukemia, in the assay with OVCAR-5 ovarian, in the assay with CAKI-1 renal, in the assay on DU-145 prostate and in the assay on MDA-N was above 100 µM throughout.

Turning to `C[C@@H](NC(=O)c1ccc(CNC(=O)/C=C/c2cccc(Oc3ccccc3)c2)cc1)c1ccccc1`, the TGI in the assay with RPMI-8226 leukemia is above 100 µM; in the assay with K-562 leukemia, above 100 µM; with A498 renal, above 90.4 µM; in the assay with SK-MEL-2 melanoma, above 100 µM; in the assay on HOP-62 NSCLC, above 61.7 µM; with SNB-19 CNS, above 52.2 µM. In addition, the TGI is above 100 µM with SR leukemia; above 100 µM in the assay on OVCAR-5 ovarian; 44.2 µM in the assay on CAKI-1 renal; above 100 µM with DU-145 prostate; above 100 µM in the assay with MDA-N.

On to `CC(C)Cc1cc2c(cc1O)CCC1C2CC[C@@]2(C)C1CC[C@@H]2O` (stereo not given in full), for which the TGI in the assay on RPMI-8226 leukemia turned out to be 20.4 µM; with K-562 leukemia, 19.6 µM; in the assay on A498 renal, 35.5 µM; in the assay with SK-MEL-2 melanoma, 15.7 µM; in the assay with HOP-62 NSCLC it was 33.1 µM; in the assay on SNB-19 CNS, 21.1 µM. Besides, the TGI in the assay with SR leukemia came to 19.8 µM; in the assay with OVCAR-5 ovarian it was 34.2 µM; in the assay on CAKI-1 renal, 35.6 µM; in the assay with DU-145 prostate it was 23.1 µM; with MDA-N it was 19.7 µM.

As to `CCOC(=O)c1c2c(c(O)c3ccccc3c(O)n(Cc3ccccc3)c1C)C(=O)C=CC2=O`, the TGI with RPMI-8226 leukemia, in the assay with K-562 leukemia, in the assay with A498 renal, in the assay on SK-MEL-2 melanoma, with HOP-62 NSCLC and in the assay with SNB-19 CNS was above 100 µM each time. In addition, the TGI in the assay on SR leukemia, with OVCAR-5 ovarian, with CAKI-1 renal, in the assay on DU-145 prostate and in the assay on MDA-N was above 100 µM in each case.

As to `Cc1ccc2nc(C=Nc3ccc(Cl)cc3)cc(C)c2c1`, the TGI in the assay on RPMI-8226 leukemia was above 51.3 µM; with K-562 leukemia, above 39.5 µM; in the assay on A498 renal, above 100 µM; in the assay with SK-MEL-2 melanoma it was above 100 µM; in the assay on HOP-62 NSCLC, 22.5 µM; in the assay on SNB-19 CNS, above 100 µM. The TGI is 11.6 µM with SR leukemia; above 100 µM in the assay on OVCAR-5 ovarian; above 76.7 µM in the assay on CAKI-1 renal; above 100 µM in the assay on DU-145 prostate; 25.2 µM with MDA-N.

Turning to `C[N+](C)(C)CC(=O)N/N=C/c1ccncc1`, the TGI with RPMI-8226 leukemia, in the assay with K-562 leukemia, in the assay on A498 renal, in the assay on SK-MEL-2 melanoma, in the assay on HOP-62 NSCLC and in the assay on SNB-19 CNS was above 100 µM throughout. The TGI in the assay with SR leukemia, in the assay with OVCAR-5 ovarian, with CAKI-1 renal, in the assay with DU-145 prostate and with MDA-N was above 100 µM in each case.

As to `COc1cc2c(cc1OCCCCOc1cc3c(cc1OC)C(=O)N1CCC[C@H]1C(=O)N3)N=C[C@@H]1CCCN1C2=O`, the TGI in the assay with RPMI-8226 leukemia amounted to 3.66 µM; in the assay on K-562 leukemia it was 6.88 µM; in the assay with A498 renal, 19.9 µM; with SK-MEL-2 melanoma, 20.1 µM; with HOP-62 NSCLC it was 44.5 µM; with SNB-19 CNS it was 20.5 µM. In addition, the TGI in the assay with SR leukemia worked out at 4.59 µM; with OVCAR-5 ovarian, 33 µM; in the assay on CAKI-1 renal it was 25.5 µM; in the assay on DU-145 prostate, 44.3 µM; in the assay with MDA-N it was 19.6 µM.

With `COc1ccc2nc3ccc(OC)cc3c(SCc3ccccc3)c2c1`, the TGI with RPMI-8226 leukemia, in the assay with K-562 leukemia, in the assay on A498 renal, in the assay on SK-MEL-2 melanoma, with HOP-62 NSCLC and with SNB-19 CNS was above 100 µM each time. Also, the TGI with SR leukemia is above 100 µM; in the assay on OVCAR-5 ovarian, above 100 µM; with CAKI-1 renal it was above 100 µM; with DU-145 prostate it was above 100 µM; in the assay with MDA-N, above 26.3 µM.

Regarding `CSc1ncc2c(n1)sc1c(=O)n(-c3ccccc3)cnc12`, the TGI with RPMI-8226 leukemia, in the assay with K-562 leukemia, in the assay with A498 renal, with SK-MEL-2 melanoma, with HOP-62 NSCLC and in the assay on SNB-19 CNS was above 100 µM throughout. Moreover, the TGI in the assay on SR leukemia, in the assay with OVCAR-5 ovarian, in the assay on CAKI-1 renal, in the assay on DU-145 prostate and in the assay with MDA-N was above 100 µM in each case.

As for `CCOc1cc2oc(C)cc(=O)c2c(OC)c1C=Nc1ccc(Cn2c(C)nc3ccccc32)cc1`, the TGI in the assay on RPMI-8226 leukemia, in the assay on K-562 leukemia, in the assay on A498 renal, with SK-MEL-2 melanoma, in the assay with HOP-62 NSCLC and in the assay with SNB-19 CNS was above 100 µM in each case. For the same molecule, the TGI in the assay with SR leukemia, in the assay with OVCAR-5 ovarian, with CAKI-1 renal, in the assay with DU-145 prostate and in the assay on MDA-N was above 100 µM in each case.

As for `COC1OC(COC(=O)c2cc(O)c(O)c(O)c2)C(OC(=O)c2cc(O)c(O)c(O)c2)C(OC(=O)c2cc(O)c(O)c(O)c2)C1OC(=O)c1cc(O)c(O)c(O)c1` (stereo not given), the TGI with RPMI-8226 leukemia was 97.3 µM; with K-562 leukemia, 49.7 µM; with A498 renal, 62.6 µM; in the assay with SK-MEL-2 melanoma it was above 100 µM; with HOP-62 NSCLC, above 100 µM; in the assay with SNB-19 CNS, above 100 µM. Besides, the TGI in the assay with SR leukemia was 36 µM; in the assay with OVCAR-5 ovarian, above 100 µM; in the assay on CAKI-1 renal it was above 100 µM; in the assay on DU-145 prostate, above 100 µM; with MDA-N it was 87.6 µM.

`COc1ccc2[nH]c3c(C)c4ccnc(NCCCN(C)CCCNc5ccc6ncn7c8ccccc8c(=O)c5c67)c4c(C)c3c2c1`: the TGI with RPMI-8226 leukemia came out at 4.56 µM; in the assay with K-562 leukemia, 4.25 µM; with A498 renal, 15.2 µM; in the assay with SK-MEL-2 melanoma it was 8.74 µM; with HOP-62 NSCLC it was 0.784 µM; with SNB-19 CNS, 3.42 µM. Besides, the TGI in the assay on SR leukemia is 1.61 µM; in the assay on OVCAR-5 ovarian, 5.2 µM; with CAKI-1 renal it was 0.561 µM; in the assay with DU-145 prostate, 4.14 µM; in the assay on MDA-N, 4.29 µM.

Take `COc1cc(-c2[o+]c3cc(O)cc(O)c3cc2O)cc(O)c1O`: the TGI with RPMI-8226 leukemia, in the assay with K-562 leukemia, with A498 renal, in the assay with SK-MEL-2 melanoma, with HOP-62 NSCLC and in the assay with SNB-19 CNS was above 100 µM in each case. For the same molecule, the TGI in the assay with SR leukemia, in the assay on OVCAR-5 ovarian, in the assay on CAKI-1 renal, in the assay with DU-145 prostate and in the assay with MDA-N was above 100 µM throughout.

For `Cn1c(=O)sc2cc(C(=S)N3CCC(Cc4ccccc4)CC3)ccc21`, the TGI in the assay with RPMI-8226 leukemia, in the assay on K-562 leukemia, with A498 renal, with SK-MEL-2 melanoma, in the assay with HOP-62 NSCLC and in the assay on SNB-19 CNS was above 100 µM in each case. Also, the TGI in the assay with SR leukemia, with OVCAR-5 ovarian, in the assay with CAKI-1 renal, in the assay with DU-145 prostate and in the assay on MDA-N was above 100 µM in each case.

As to `O=C(CSc1nc2ccc(I)cc2c(=O)n1Cc1ccccc1)NNC(=O)c1ccccc1`, the TGI with RPMI-8226 leukemia came out at 28 µM; in the assay on K-562 leukemia it was 15.5 µM; in the assay on A498 renal, 25.7 µM; with SK-MEL-2 melanoma it was 19.2 µM; with HOP-62 NSCLC, 22.7 µM; in the assay with SNB-19 CNS it was 63.3 µM. Besides, the concentration for total growth inhibition (TGI) was 23.7 µM in the assay with SR leukemia; 40.5 µM with OVCAR-5 ovarian; 12.3 µM with CAKI-1 renal; 45.9 µM in the assay on DU-145 prostate; above 100 µM in the assay with MDA-N.

Consider `O=C(O)CCCc1ccc2ccccc2c1`, for which the TGI with RPMI-8226 leukemia, in the assay on K-562 leukemia, in the assay on A498 renal, in the assay on SK-MEL-2 melanoma, in the assay on HOP-62 NSCLC and in the assay on SNB-19 CNS was above 100 µM each time. In addition, the TGI in the assay on SR leukemia, in the assay on OVCAR-5 ovarian, in the assay with CAKI-1 renal, with DU-145 prostate and in the assay with MDA-N was above 100 µM in each case.

Take `O=c1c2cc(Cl)cc(Cl)c2oc2nc3n(c(=O)c12)CCCS3`: the TGI in the assay with RPMI-8226 leukemia, in the assay with K-562 leukemia, with A498 renal, with SK-MEL-2 melanoma, in the assay on HOP-62 NSCLC and in the assay on SNB-19 CNS was above 100 µM each time. The TGI with SR leukemia, in the assay with OVCAR-5 ovarian, with CAKI-1 renal, in the assay with DU-145 prostate and in the assay with MDA-N was above 100 µM in each case.

With `c1ccc2c(c1)NC1(N3CCCCC3)CCCCC21` (stereo not given), the TGI with RPMI-8226 leukemia is above 100 µM; in the assay on K-562 leukemia, above 100 µM; with A498 renal, 98 µM; in the assay with SK-MEL-2 melanoma, above 100 µM; in the assay on HOP-62 NSCLC it was above 100 µM; in the assay on SNB-19 CNS, above 100 µM. For the same molecule, the TGI in the assay with SR leukemia, in the assay with OVCAR-5 ovarian, with CAKI-1 renal, in the assay with DU-145 prostate and in the assay on MDA-N was above 100 µM throughout.

A word on the TGI: it is the concentration at which net growth stops. A higher TGI goes with less potent growth arrest.
